Reference: patent US20260263554A1, “COMPOSITION COMPRISING CPNE7 PROTEIN OR CPNE7 PROTEIN-DERIVED PEPTIDE FOR REMOVING REACTIVE OXYGEN SPECIES IN CELLS” (HYSENSBIO CO., LTD, priority 2022, published 2026)

How the values were obtained:
CCD986SK cells [1] = test: Amount of living cells by WST-8 in dermal fibroblasts; assay type: cell-based; details: 1 mM H2O2, 1, 10, 100 and 500 μg/mL Selcopintide, 24 hours, compared to H2O2-only-treated group
Method: (§1) Cultured CCD986SK cells were seeded into 96-well plates at a density of 3×10^3 cells per well, cultured for 24 hours, and then treated with 1 mM hydrogen peroxide (H2O2) and treated with Selcopintide at concentrations of 1 μg/mL, 10 μg/mL, 100 μg/mL, and 500 μg/mL for 24 hours. Untreated CCD986SK cells were used as the control.
The WST-8 solution was added to each well and allowed to react for one hour, and then absorbance was measured at 450 nm using a microplate reader and compared.

[2] = test system: endogenous antioxidant enzymes in hDPC cells; test: mRNA levels of endogenous antioxidant enzymes by RT-PCR; assay type: cell-based, human; details: hDPCs, 1 mM H2O2, CPNE7 recombinant protein 100 ng/mL or Selcopintide 10 ug/mL
Method: Cultured hDPCs were seeded into 60 mm culture dishes at a density of 4×10^5 cells, cultured for 24 hours, and then treated with 1 mM H2O2 and treated with the CPNE7 recombinant protein (100 ng/mL) and Selcopintide (10 ug/mL). After 30 minutes and one hour, the mRNA levels of Sod1, 2, and 3, catalase, Gpx7, Hmox1, and Txmd1 were checked.

[3] = test system: cardiomyocytes (H9C2 cell line); test: Optical microscope observation of cardiomyocytes after H2O2 and Selcopintide; assay type: cell-based; details: H9C2, 1 mM H2O2, Selcopintide 1, 10, 100 and 500 μg/mL, 24 hours; compared to H2O2-only-treated group
Method: as §1, with “H9C2” for “CCD986SK”, “6-well” for “96-well”, “1×10^5” for “3×10^3”

H9C2 cells [4] = test: Amount of living cells by WST-8 in cardiomyocytes; assay type: cell-based; details: H9C2, 1 mM H2O2, 1, 10, 100 and 500 μg/mL Selcopintide, 24 hours; compared to H2O2-only-treated group
Method: as §1, with “H9C2” for “CCD986SK”
(§2) The WST-8 solution was added to each well and allowed to react for 1 hour, and then absorbance was measured at 450 nm using a microplate reader and compared.

hDPC cells = test: Amount of living cells by WST-8; assay type: cell-based, human; details: hDPCs, 1 mM H2O2, 1 μg/mL and 10 μg/mL Selcopintide, 24 hours; compared to H2O2-only-treated group
Method: as §1, with “Cultured hDPC” for “Cultured CCD986SK”, “Untreated hDPCs” for “Untreated CCD986SK cells”
as §2

[5] = test system: Human dental pulp cells (hDPCs); test: Optical microscope observation of hDPCs after H2O2 and test substance; assay type: cell-based; details: 24 hours
Method: Human dental pulp cells (hDPCs) were cultured in an α-MEM medium containing 10% FBS under 37° C. and 5% CO2 conditions.
hDPCs were seeded into 35 mm culture dishes at a density of 1×10^5 cells, cultured for 24 hours, treated with H2O2 at a concentration of 5 uM, 100 uM, 1 mM, or 2 mM, respectively, and then treated with 100 ng/ml of a recombinant CPNE7 protein and cultured for 24 hours. After the culture was completed, the cultured cells were washed with PBS, and observed using an optical microscope. At this time, the hDPCs cultured without treating the recombinant CPNE7 protein (rCPNE7) were used as the control.
as §1, with “Cultured hDPC” for “Cultured CCD986SK”, “into 6-well” for “into 96-well”, “of 1×10^5” for “of 3×10^3”, “Untreated hDPCs” for “Untreated CCD986SK cells”

H9C2 cells [6] = test: B-gal staining, cell aging in cardiomyocytes; assay type: cell-based; details: H9C2, 1 mM H2O2, Selcopintide 1, 10, 100 and 500 μg/mL, 24 hours; compared to H2O2-only-treated group
Method: Cultured H9C2 was seeded into 6-well plates at a density of 1×10^5 cells, cultured for 24 hours, and then treated with 1 mM H2O2 and treated with 1 μg/mL, 10 μg/mL, 100 μg/mL, and 500 μg/mL of Selcopintide. After 24 hours, the cells were fixed with 4% paraformaldehyde.
Next, B-gal staining was performed on the fixed cells for 24 hours to compare the degree of cell aging. 24 hours after treatment with 1 mM H2O2, a large number of B-gal positive H9C2 cells were identified.

hDPCs [7] = test: Reactive oxygen species level with DCFDA, confocal microscope; assay type: cell-based, human; details: 1 mM H2O2, 10 μg/mL Selcopintide, imaged for approximately one hour
Method: Cultured hDPCs were seeded into 35 mm culture dishes for a confocal microscope at a density of 1×10^5 cells, cultured for 24 hours, and then treated with 1 mM H2O2 and treated with 100 ng/mL of rCPNE7. Then, images were taken for approximately one hour using a confocal microscope.
Cultured hDPCs were seeded into 35 mm culture dishes for a confocal microscope at a density of 1×10^5 cells, cultured for 24 hours, and then treated with 1 mM H2O2 and treated with 10 μg/mL of Selcopintide. Thereafter, images were taken for approximately one hour using a confocal microscope.

hDPCs [8] = test: Immunofluorescence staining with γ-H2A.X (DNA damage marker); assay type: cell-based, human; details: 1 mM H2O2, 10 μg/mL Selcopintide, 24 hours, vs 1 mM H2O2 group
Method: Cultured hDPCs were seeded into 35 mm culture dishes for a confocal microscope at a density of 1×10^5 cells, cultured for 24 hours, and then treated with 1 mM H2O2 and treated with 100 ng/mL of rCPNE7. After 24 hours, the cells were fixed with 4% paraformaldehyde.
Immunofluorescence staining using a γ-H2A.X antibody was performed on the fixed cells to compare intensity.
Cultured hDPCs were seeded into 35 mm culture dishes for a confocal microscope at a density of 1×10^5 cells, cultured for 24 hours, and then treated with 1 mM H2O2 and treated with 10 μg/mL of Selcopintide. After 24 hours, the cells were fixed with 4% paraformaldehyde.

CCD986SK cells [9] = test: B-gal staining, cell aging in dermal fibroblasts; assay type: cell-based; details: 1 mM H2O2, Selcopintide 1, 10, 100 and 500 μg/mL, 24 hours, compared to H2O2-only-treated group
Method: Cultured CCD986SK cells were seeded into 6-well plates at a density of 1×10^5 cells, cultured for 24 hours, and then treated with 1 mM H2O2 and treated with 1 μg/mL, 10 μg/mL, 100 μg/mL, and 500 μg/mL of Selcopintide. After 24 hours, the cells were fixed with 4% paraformaldehyde.
B-gal staining was performed on the fixed cells for 24 hours to compare the degrees of cell aging. 24 hours after treatment with 1 mM H2O2, a large number of B-gal positive CCD986SK cells were identified.

[10] = test system: dermal fibroblast (CCD986SK) cells; test: Optical microscope observation of dermal fibroblasts after H2O2 and Selcopintide; assay type: cell-based; details: 24 hours
Method: as §1, with “6-well” for “96-well”, “1×10^5” for “3×10^3”

[11] = 1 mM H2O2, Selcopintide 1, 10, 100 and 500 μg/mL, compared to H2O2-only-treated group

KYKQKRRSYK (Novel peptide) [Selcopintide]
cell viability (WST-8, absorbance 450 nm) (CCD986SK cells [1]): significantly higher | mRNA of endogenous antioxidant enzymes Sod1, 2, and catalase ([2]; after 30 minutes, compared to H2O2-only-treated group): significantly increased | mRNA of Sod1 and Gpx7, and Hmox1 and Txrnd1 ([2]; after one hour): significantly increased | cell viability (optical microscope) [3]: higher | cell viability (WST-8, absorbance 450 nm) (H9C2 cells [4]): significantly higher | cell viability (WST-8, absorbance 450 nm) (hDPC cells): significantly higher | cell viability (optical microscope) ([5]; 1 mM H2O2, 1 μg/mL and 10 μg/mL treatment groups): high | cell viability (optical microscope) [5, 11]: higher | number of B-gal positive H9C2 cells (H9C2 cells [6]): significantly reduced | amount of reactive oxygen species (DCFDA) (hDPCs [7]): decreased and became significant at approximately one hour | accumulation of DNA damage (γ-H2A.X intensity) (hDPCs [8]): significantly reduced | number of B-gal positive CCD986SK cells (CCD986SK cells [9]): significantly reduced | significance of higher cell viability (optical microscope) ([10]; 1 mM H2O2, 1 μg/mL and 10 μg/mL of Selcopintide): highest | cell viability (optical microscope) [10, 11]: higher
